Legend:
SCID mice = experiment: Prepulse inhibition (PPI) in SCID mice; format: in vivo, mouse; details: adult (12 week old) SCID mice, i.p. 100 μl of 100 μM, 30 minutes prior to PPI testing, vs PBS
Experimental: Prepulse Inhibition (PPI). PPI testing was performed within startle chambers purchased from Med Associates Inc (Med Associates, St. Albans, Vt., USA). PPI was analyzed as described previously (Kipnis et al., 2004). Briefly, during a period of acclimation, a 65-dB background noise was applied for 5-min, and continued throughout the test session. All sessions for testing of PPI consisted of startle trials (pulse alone, 40-ms, 120-dB), prepulse trials (prepulse 20-ms, 69, 73, 78, or 81 dB followed by a (100-ms delay) pulse), and no-stimulus trials. All sessions were presented in pseudo-random order. The average time between trials was 15 s (range 12-30 s). PPI was calculated as: % PPI=100−{[(startle response for prepulse+pulse)/(startle response for pulse-alone)]×100}. In all the experiments, there were no significant differences between groups in trials of startle reactivity to pulse alone, and in no-stimulation trials. […]
To confirm this possibility we examined whether injection of kisspeptin can restore the abnormal PPI in SCID mice to the normal level in wild-type mice. We analyzed the PPI in adult (12 week old) wild-type mice and, in SCID mice that were injected IP with 100 μl of 100 μM Kp-10 (SEQ ID NO:3), 30 minutes prior to PPI testing. […]

C57B1/6 mice = experiment: PPI in MK-801 pharmacological model of schizophrenia; format: in vivo, mouse; details: Kp-10 i.p. 100 μl of 100 μM 15 min prior to MK-801 (0.1 mg/kg)
Experimental: Prepulse Inhibition (PPI). PPI testing was performed within startle chambers purchased from Med Associates Inc (Med Associates, St. Albans, Vt., USA). PPI was analyzed as described previously (Kipnis et al., 2004). Briefly, during a period of acclimation, a 65-dB background noise was applied for 5-min, and continued throughout the test session. All sessions for testing of PPI consisted of startle trials (pulse alone, 40-ms, 120-dB), prepulse trials (prepulse 20-ms, 69, 73, 78, or 81 dB followed by a (100-ms delay) pulse), and no-stimulus trials. All sessions were presented in pseudo-random order. The average time between trials was 15 s (range 12-30 s). PPI was calculated as: % PPI=100−{[(startle response for prepulse+pulse)/(startle response for pulse-alone)]×100}. In all the experiments, there were no significant differences between groups in trials of startle reactivity to pulse alone, and in no-stimulation trials. Data from no-stimulation trials are not included in the results because the values obtained were negligible relative to values from trials containing startle stimuli. Reduced PPI is associated with schizophrenia-related behavior. […]
To further establish the antipsychotic effect of Kp-10, we evaluated its ability to overcome psychotic symptoms induced by the psycho-mimetic agent, MK-801 (N-methyl-D-aspartate (NMDA) antagonist), which induces neurotransmitter imbalance. […]

BDNF [1] = experiment: qPCR of BDNF transcripts in hippocampus; format: in vivo, mouse; details: mRNA, offspring of poly I:C treated dams treated at 8 weeks with Kp-10 or PBS
Experimental: RNA purification, cDNA synthesis, reverse transcription PCR, and real-time quantitative PCR analysis. For RNA expression analysis, cells from whole hippocampi were extracted with TRI Reagent (MRC, Cincinnati, Ohio), and total cellular RNA was purified from the lysates using the RNeasy kit (Qiagen, Hilden, Germany). RNA (1 μg) was converted to cDNA using SuperScript II (Promega, Madison, Wis.). The amplification cycle was 95° C. for 5 s, 60° C. for 20 s, and 72° C. for 15 s.
The following primers were used: […]
To understand what is the mechanism behind the prophylactic treatment of Kp-10 we examined the expression of total brain-derived neurotrophic factor (BDNF) and its exon transcripts 1-4 according to Zajac et al. (2010). […] Recently, association between a BDNF variant and childhood-onset mood disorder was established (Strauss et al., 2005). Therefore, we studied mRNA expression of a few BDNF transcripts in the hippocampus of offspring of PBS treated dams (n=5) compared to offspring of poly I:C treated dams, which were treated at 8 weeks with either Kp-10 (n=6) or PBS (n=6) (Table 3). […] Treatment with Kp-10 at 8 weeks of age induced an increase in the expression of BDNF1 transcript to the normal level (Table 3(ii)). […] In addition, no significant difference was found between the groups in the expression of BDNF transcripts 3 and 4 (Table 3(iv and v)). […] The involvement of BDNF in schizophrenia and its effect on PPI levels are still a debate. Our observations of changes in expression of selective forms of BDNF might explain this apparent dichotomy.

BDNF [2] = details: hippocampal slices; cited from earlier work

For YNWNSFGLRF—NH2 [Kp-10], the PPI (SCID mice) was “restored the PPI of SCID mice back to the normal level”, the PPI levels (C57B1/6 mice) was “improved the PPI levels” and the “Expression of BDNF1 transcript” value (BDNF [1]) was “*2.2 ± 0.5”. For the same substance, the “Expression of BDNF2 transcript” value (BDNF [1]) was “^#6.7 ± 1 ^”, the “Expression of BDNF3 transcript” value (BDNF [1]) was 8 ± 3 and the “Expression of BDNF4 transcript” value (BDNF [1]) was 9 ± 2. For the same substance, the “Expression of BDNF transcript (total BDNF)” value (BDNF [1]) was 2.4 ± 0.5 and the “BDNF mRNA levels” value (BDNF [2]) was “elevate BDNF mRNA levels”.

From US8716228B2, “GPR54 agonists or antagonists for treatment of diseases presenting behavioral abnormalities” (YEDA Research and Development Co. Ltd., priority 2009, dated 2014)
